{
  "source": "paper PMC6950245",
  "about": "“Identification and Characterization of ShSPI, a Kazal-Type Elastase Inhibitor from the Venom of Scolopendra Hainanum” (Toxins, 2019)",
  "note": "Where a SMILES comes first, the peptide text is derived from it. Bridges are numbered along the chain shown (N, C = ends).",
  "data": [
    {"target": "T1, human neutrophil elastase (HNE) (Homo sapiens, UniProt P08246)", "T1 construct": "purchased Sigma-Aldrich E8140", "T1 sequence (P08246 30-267)": "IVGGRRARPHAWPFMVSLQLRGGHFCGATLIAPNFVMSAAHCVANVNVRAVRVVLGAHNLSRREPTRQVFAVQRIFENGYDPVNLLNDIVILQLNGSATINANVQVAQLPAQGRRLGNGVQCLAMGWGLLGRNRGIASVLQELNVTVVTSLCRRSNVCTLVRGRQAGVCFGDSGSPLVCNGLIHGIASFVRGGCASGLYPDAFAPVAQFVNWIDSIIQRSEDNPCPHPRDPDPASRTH", "test": "Protease inhibition assay, human neutrophil elastase (chromogenic substrate, Dixon method)", "format": "biochemical", "description": "Human neutrophils elastase (HNE, E8140), porcine pancreatic elastase (PPE, E0127), cathepsin G (CG, C4428), human trypsin (T6424), α-chymotrypsin from human pancreas (C8946), and thrombin from human plasma (T4393) were all purchased from Sigma-Aldrich (USA). Factor Xa (FXa, HFXa 1011) and Factor XIIa (FXIIa, HFXIIa 1212a) were from Enzyme Research Laboratories (South Bend, IN, USA). Kallikrein from human plasma (420307) was from Merck Millipore (Billerica, MA, USA).\nSubstrate for HNE and PPE (MeOSuc-Ala-Ala-Pro-Val-pNA, 324696) was purchased from Merck Millipore (USA). Substrates for CG (Succinyl-Ala-Ala-Pro-Phe-pNA, 573462), trypsin (Nalpha-Benzoyl-L-arginine 4-nitroanilide hydrochloride, B3133), FXa (CH3OCO-D-CHA-Gly-Arg-pNA-AcOH, F3301), chymotrypsin (N-Succinyl-Gly-Gly-Phe-pNA, S1899), thrombin (β-Ala-Gly-Arg-pNA diacetate, T3068), and kallikrein (Z-Phe-Arg 7-amido-4-methylcoumarin hydrochloride, C9521) were purchased from Sigma-Aldrich (USA).\nAs mentioned in our previous study, experiments for protease inhibitory activity were assayed in buffer (0.05 M Tris-HCl, pH 7.8) at 37 °C. […] At the end of the incubation, the reaction was initiated by the addition of the exclusive substrate solution and monitored by recording the absorbance at 405 nm every 30 s for 30 min. Enzyme activity in each well was calculated based on the initial slope of the reaction curve, and percentage of the initial slope of the uninhibited reaction was expressed. The inhibition constant Ki value was determined according to the Dixon method.", "units": {"Ki": "µM"}, "values": [
      {"smiles": "CC[C@H](C)[C@@H]1NC(=O)[C@H](C)NC(=O)[C@@H]2CCCN2C(=O)[C@@H]2CSSC[C@H](NC(=O)[C@H](CO)NC(=O)[C@H](CC(N)=O)NC(=O)[C@H](CO)NC(=O)[C@H](Cc3ccc(O)cc3)NC(=O)[C@H](CCSC)NC(=O)[C@H](CCCNC(=N)N)NC(=O)CNC(=O)[C@H](Cc3ccccc3)NC(=O)[C@H](CCC(=O)O)NC(=O)[C@H](CC(=O)O)NC(=O)[C@H](Cc3ccccc3)NC(=O)[C@H](C(C)C)NC(=O)[C@@H]3CCCN3C(=O)[C@H](CCC(N)=O)NC(=O)[C@H](Cc3ccc(O)cc3)NC1=O)C(=O)N[C@@H](CCC(=O)O)C(=O)N[C@@H](CCSC)C(=O)N[C@@H](CCC(N)=O)C(=O)N[C@@H](CCCNC(=N)N)C(=O)N[C@@H](C)C(=O)N[C@@H](CCCNC(=N)N)C(=O)N[C@H](C(=O)N[C@@H](CC(C)C)C(=O)N[C@@H](CCCNC(=N)N)C(=O)NCC(=O)O)CSSC[C@H](N)C(=O)N1CCC[C@H]1C(=O)N[C@@H](C)C(=O)N[C@@H](C(C)C)C(=O)N2", "note": "[Q3A] (H-CPAVCPAIYQPVFDEFGRMYSNSCEMQRARCLRG-OH; disulfide 1-31, 5-24)", "Ki": 0.114},
      {"smiles": "CC[C@H](C)[C@@H]1NC(=O)[C@H](C)NC(=O)[C@@H]2CCCN2C(=O)[C@@H]2CSSC[C@H](NC(=O)[C@H](CO)NC(=O)[C@H](CC(N)=O)NC(=O)[C@H](CO)NC(=O)[C@H](Cc3ccc(O)cc3)NC(=O)[C@H](CCSC)NC(=O)[C@H](CCCNC(=N)N)NC(=O)CNC(=O)[C@H](Cc3ccccc3)NC(=O)[C@H](CCC(=O)O)NC(=O)[C@H](CC(=O)O)NC(=O)[C@H](Cc3ccccc3)NC(=O)[C@H](C(C)C)NC(=O)[C@@H]3CCCN3C(=O)[C@H](CCC(N)=O)NC(=O)[C@H](Cc3ccc(O)cc3)NC1=O)C(=O)N[C@@H](CCC(=O)O)C(=O)N[C@@H](CCSC)C(=O)N[C@@H](CCC(N)=O)C(=O)N[C@@H](CCCNC(=N)N)C(=O)N[C@@H](C)C(=O)N[C@@H](CCCNC(=N)N)C(=O)N[C@H](C(=O)N[C@@H](CC(C)C)C(=O)N[C@@H](CCCNC(=N)N)C(=O)NCC(=O)O)CSSC[C@H](N)C(=O)N[C@@H](C)C(=O)N[C@@H](CCC(N)=O)C(=O)N[C@@H](C(C)C)C(=O)N2", "note": "[P2A] (H-CAQVCPAIYQPVFDEFGRMYSNSCEMQRARCLRG-OH; disulfide 1-31, 5-24)", "Ki": 0.101},
      {"smiles": "CC[C@H](C)[C@@H]1NC(=O)[C@H](C)NC(=O)[C@@H]2CCCN2C(=O)[C@@H]2CSSC[C@H](NC(=O)[C@H](CO)NC(=O)[C@H](CC(N)=O)NC(=O)[C@H](CO)NC(=O)[C@H](Cc3ccc(O)cc3)NC(=O)[C@H](CCSC)NC(=O)[C@H](CCCNC(=N)N)NC(=O)CNC(=O)[C@H](Cc3ccccc3)NC(=O)[C@H](CCC(=O)O)NC(=O)[C@H](CC(=O)O)NC(=O)[C@H](Cc3ccccc3)NC(=O)[C@H](C(C)C)NC(=O)[C@@H]3CCCN3C(=O)[C@H](CCC(N)=O)NC(=O)[C@H](C)NC1=O)C(=O)N[C@@H](CCC(=O)O)C(=O)N[C@@H](CCSC)C(=O)N[C@@H](CCC(N)=O)C(=O)N[C@@H](CCCNC(=N)N)C(=O)N[C@@H](C)C(=O)N[C@@H](CCCNC(=N)N)C(=O)N[C@H](C(=O)N[C@@H](CC(C)C)C(=O)N[C@@H](CCCNC(=N)N)C(=O)NCC(=O)O)CSSC[C@H](N)C(=O)N1CCC[C@H]1C(=O)N[C@@H](CCC(N)=O)C(=O)N[C@@H](C(C)C)C(=O)N2", "note": "[Y9A] (H-CPQVCPAIAQPVFDEFGRMYSNSCEMQRARCLRG-OH; disulfide 1-31, 5-24)", "Ki": "> 1000"},
      {"smiles": "CC[C@H](C)[C@@H]1NC(=O)[C@H](C)NC(=O)[C@@H]2CCCN2C(=O)[C@@H]2CSSC[C@H](NC(=O)[C@H](CO)NC(=O)[C@H](CC(N)=O)NC(=O)[C@H](CO)NC(=O)[C@H](Cc3ccc(O)cc3)NC(=O)[C@H](CCSC)NC(=O)[C@H](CCCNC(=N)N)NC(=O)CNC(=O)[C@H](Cc3ccccc3)NC(=O)[C@H](CCC(=O)O)NC(=O)[C@H](CC(=O)O)NC(=O)[C@H](Cc3ccccc3)NC(=O)[C@H](C(C)C)NC(=O)[C@@H]3CCCN3C(=O)[C@H](C)NC(=O)[C@H](Cc3ccc(O)cc3)NC1=O)C(=O)N[C@@H](CCC(=O)O)C(=O)N[C@@H](CCSC)C(=O)N[C@@H](CCC(N)=O)C(=O)N[C@@H](CCCNC(=N)N)C(=O)N[C@@H](C)C(=O)N[C@@H](CCCNC(=N)N)C(=O)N[C@H](C(=O)N[C@@H](CC(C)C)C(=O)N[C@@H](CCCNC(=N)N)C(=O)NCC(=O)O)CSSC[C@H](N)C(=O)N1CCC[C@H]1C(=O)N[C@@H](CCC(N)=O)C(=O)N[C@@H](C(C)C)C(=O)N2", "note": "[Q10A] (H-CPQVCPAIYAPVFDEFGRMYSNSCEMQRARCLRG-OH; disulfide 1-31, 5-24)", "Ki": 0.0136},
      {"smiles": "CC[C@H](C)[C@@H]1NC(=O)[C@H](C)NC(=O)[C@@H]2CCCN2C(=O)[C@@H]2CSSC[C@H](NC(=O)[C@H](CO)NC(=O)[C@H](CC(N)=O)NC(=O)[C@H](C)NC(=O)[C@H](Cc3ccc(O)cc3)NC(=O)[C@H](CCSC)NC(=O)[C@H](CCCNC(=N)N)NC(=O)CNC(=O)[C@H](Cc3ccccc3)NC(=O)[C@H](CCC(=O)O)NC(=O)[C@H](CC(=O)O)NC(=O)[C@H](Cc3ccccc3)NC(=O)[C@H](C(C)C)NC(=O)[C@@H]3CCCN3C(=O)[C@H](CCC(N)=O)NC(=O)[C@H](Cc3ccc(O)cc3)NC1=O)C(=O)N[C@@H](CCC(=O)O)C(=O)N[C@@H](CCSC)C(=O)N[C@@H](CCC(N)=O)C(=O)N[C@@H](CCCNC(=N)N)C(=O)N[C@@H](C)C(=O)N[C@@H](CCCNC(=N)N)C(=O)N[C@H](C(=O)N[C@@H](CC(C)C)C(=O)N[C@@H](CCCNC(=N)N)C(=O)NCC(=O)O)CSSC[C@H](N)C(=O)N1CCC[C@H]1C(=O)N[C@@H](CCC(N)=O)C(=O)N[C@@H](C(C)C)C(=O)N2", "note": "[S21A] (H-CPQVCPAIYQPVFDEFGRMYANSCEMQRARCLRG-OH; disulfide 1-31, 5-24)", "Ki": 0.0168},
      {"smiles": "CC[C@H](C)[C@@H]1NC(=O)[C@H](C)NC(=O)[C@@H]2CCCN2C(=O)[C@@H]2CSSC[C@H](NC(=O)[C@H](CO)NC(=O)[C@H](CC(N)=O)NC(=O)[C@H](CO)NC(=O)[C@H](Cc3ccc(O)cc3)NC(=O)[C@H](CCSC)NC(=O)[C@H](CCCNC(=N)N)NC(=O)CNC(=O)[C@H](Cc3ccccc3)NC(=O)[C@H](CCC(=O)O)NC(=O)[C@H](CC(=O)O)NC(=O)[C@H](Cc3ccccc3)NC(=O)[C@H](C(C)C)NC(=O)[C@@H]3CCCN3C(=O)[C@H](CCC(N)=O)NC(=O)[C@H](Cc3ccc(O)cc3)NC1=O)C(=O)N[C@@H](CCC(=O)O)C(=O)N[C@@H](CCSC)C(=O)N[C@@H](CCC(N)=O)C(=O)N[C@@H](CCCNC(=N)N)C(=O)N[C@@H](C)C(=O)N[C@@H](CCCNC(=N)N)C(=O)N[C@H](C(=O)N[C@@H](CC(C)C)C(=O)N[C@@H](CCCNC(=N)N)C(=O)NCC(=O)O)CSSC[C@H](N)C(=O)N1CCC[C@H]1C(=O)N[C@@H](CCC(N)=O)C(=O)N[C@@H](C)C(=O)N2", "note": "[V4A] (H-CPQACPAIYQPVFDEFGRMYSNSCEMQRARCLRG-OH; disulfide 1-31, 5-24)", "Ki": 0.0132}
    ]}
  ]
}
